Reference: patent US9120762B2, “Salts of bicyclo-substituted pyrazolon azo derivatives, preparation method and use thereof” (Jiangsu Hengrui Medicine Co., Ltd., priority 2009, dated 2015)
Where two headings read alike, the source gives them in different places.

Columns and labels:
[1] = Solubility assay in water, 0.1% hydrochloric acid and methanol; assay type: physicochemical; settings: read-out: solubility
Method in brief: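 Solubility was classed by the solvent volume needed to dissolve 1 g (mL) of solute, from "very soluble" (<1 mL) to "practically insoluble" (not fully dissolved in 10000 mL).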

[2] = Hygroscopicity assay, standing 48 hours at 25° C., humidity 79%; assay type: physicochemical; settings: for Percentage of weight gain / hygroscopicity: 48 hours, 25° C., humidity 79%
Experimental: The hygroscopicity test of the compounds of the present disclosure after standing for 48 hours
1. The arid glass weighing bottle with a tap (external diameter is 50 mm, the height is 15 mm) was placed at 25° C.±1° C. suitably in a thermostatic drier (saturated ammonium sulfate solution was laid in the lower part, humidity was 79%) the day before the assay, precise weight was measured as (m1);
2. The above weighing bottle was covered with the compounds of the invention (about 1 g), and the thickness of the compounds were generally 1 mm, precise weight was measured as (m2);
3. The mouth of the weighing bottle was kept open and placed with the tap in the above conditions with constant temperature and humidity for 48 hours;
4. Put the tap back on the bottle, precise weight was measured as (m3)
The degree of hygroscopicity was defined as follows: […]
Deliquesce: turning into liquid by absorbing enough moisture.
High hygroscopicity: the percentage of hygroscopicity weight gain is not less than 15%.
Hygroscopicity: the percentage of hygroscopicity weight gain is less than 15%, but not less than 2%.
Sparing hygroscopicity: the percentage of hygroscopicity weight gain is less than 2%, but not less than 0.2%.
No hygroscopicity or almost no hygroscopicity: the percentage of hygroscopicity weight gain is less than 0.2%.

human TPOR = target: T1, human TPOR (Homo sapiens, UniProt P40238); assay: Proliferation effect on BAF3-TPOR cell (CCK-8); assay type: cell-based; settings: rate relative to rhTPO positive control
T1 construct: host or cells: BaF3 (murine pro-B cells), stably transfected, G418-selected
T1 sequence (P40238 26-635): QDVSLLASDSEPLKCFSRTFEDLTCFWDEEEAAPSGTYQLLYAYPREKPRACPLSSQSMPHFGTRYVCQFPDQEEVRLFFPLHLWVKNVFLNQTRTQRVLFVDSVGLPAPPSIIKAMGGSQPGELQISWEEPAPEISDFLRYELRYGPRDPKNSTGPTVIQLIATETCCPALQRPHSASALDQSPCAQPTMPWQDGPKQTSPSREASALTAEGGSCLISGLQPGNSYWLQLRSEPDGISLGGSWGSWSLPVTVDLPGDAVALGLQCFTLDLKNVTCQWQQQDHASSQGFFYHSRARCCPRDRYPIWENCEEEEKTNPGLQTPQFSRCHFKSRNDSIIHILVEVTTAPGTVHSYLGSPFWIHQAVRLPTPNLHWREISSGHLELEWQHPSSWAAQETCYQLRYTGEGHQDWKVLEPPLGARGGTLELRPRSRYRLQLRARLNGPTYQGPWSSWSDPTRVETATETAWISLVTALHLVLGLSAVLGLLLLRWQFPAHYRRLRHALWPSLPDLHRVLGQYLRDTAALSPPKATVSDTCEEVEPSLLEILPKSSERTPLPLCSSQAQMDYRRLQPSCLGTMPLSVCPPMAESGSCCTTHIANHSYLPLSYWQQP
Method in brief: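 BaF3 cells stably expressing dual-site-mutated human TPOR were washed free of IL-3 and plated at 100,000 cells/mL with test solutions of 0.001–30 μM, then incubated 24 h at 37 °C. After a further 24 h with CCK-8, OD450 was read. Proliferation = (S−B)/(P−B) against a rhTPO control, fitted for EC50.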

[3] = 0.1% hydrochloric acid, simulated gastric fluid, 0.1% hydrochloric acid

Row | SMILES | solubility [1, 3] | solubility ([1]; methanol, organic solvent or mixture, methanol) | solubility ([1]; water) | Percentage of weight gain [2] | hygroscopicity [2] | hygroscopicity, in words ([2]; comparing to the other salts) | EC50 (human TPOR)
1 | CC1=NN(c2ccc3c(c2)CCCC3)C(=O)/C1=N\Nc1cccc(-c2ccc(C(=O)O)o2)c1O.NCCO.NCCO [Example 7, (Z)-5-(2-hydroxy-3-{N′-[3-methyl-5-oxo-1-(5,6,7,8-tetrahydro-naphthalen-2-yl)-1,5-dihydro-pyrazol-4-ylidene]-hydrazino}-phenyl)-furan-2-carboxylic acid bis-(ethanolamine)] | 29 µg/mL | 22400 µg/mL | 3960 µg/mL | 1.2% | Sparing hygroscopicity (the percentage of hygroscopicity weight gain is less than 2%, but not less than 0.2%) | less hydroscopic | 19 nM
2 | CC1=NN(c2ccc3c(c2)CCCC3)C(=O)/C1=N\Nc1cccc(-c2ccc(C(=O)O)o2)c1O [Example 8, (Z)-5-(2-hydroxy-3-{N′-[3-methyl-5-oxo-1-(5,6,7,8-tetrahydro-naphthalen-2-yl)-1,5-dihydro-pyrazol-4-ylidene]-hydrazino}-phenyl)-furan-2-carboxylic acid bis-(choline)] | < 1 µg/mL |  |  | 13.9% | Hygroscopicity (the percentage of hygroscopicity weight gain is less than 15%, but not less than 2%) |  | 4.4 nM
3 | CC1=NN(c2ccc3c(c2)CCCC3)C(=O)/C1=N\Nc1cccc(-c2ccc(C(=O)O)o2)c1O [Example 12, (Z)-5-(2-hydroxy-3-{N′-[3-methyl-5-oxo-1-(5,6,7,8-tetrahydro-naphthalen-2-yl)-1,5-dihydro-pyrazol-4-ylidene]-hydrazino}-phenyl)-furan-2-carboxylic acid bis-(trometamol)] |  |  |  | 2.71% | Hygroscopicity (the percentage of hygroscopicity weight gain is less than 15%, but not less than 2%) |  | 14 nM
